Results from patent US20260273028A1, “PEROXIDASE COMPOSITIONS CONTAINING IMPROVED ENHANCING AGENTS” (FLEN HEALTH PHARMA NV, priority 2022, published 2026).

Experiments:
Assay type in all cases: cell-based
[1] = tested on: Aspergillus niger ATCC®16404™; test: MIC determination, broth microdilution, GOX+LPO with potentiator candidate; conditions: A. niger
Protocol: (§1) The minimum inhibitory concentration (MIC) is defined as the lowest concentration of an antimicrobial agent that results in a complete inhibition of microbial growth (determined via visual evaluation or absorbance measurements) after overnight incubation. This endpoint measurement is used to define the microbial susceptibility towards an antimicrobial agent. Here, the antimicrobial agent is a combination of the natural enzymes GOX+LPO.
(§2) To determine the MIC of the described combinations, a classical broth microdilution assay was used to determine the susceptibility of a series of microbes commonly detected in infected wounds, including (a) the Gram-positive bacterium Staphylococcus aureus ATCC® 6538™ (results shown below), (b) the Gram-negative bacterium Pseudomonas aeruginosa ATCC®9027™ (results shown below), (c) the yeast Candida albicans ATCC®10231™ (results shown below), and (d) the fungus Aspergillus niger ATCC®16404™ (results shown below). In brief, a […] serial dilution of the enzymatic GOX+LPO solution was prepared in a transparent, flat-bottomed 96-well test plate with final concentrations ranging from 0.005 to 0.00000977% (v/v). To each well, a fixed volume of the enzymatic substrate containing 3,3% (w/v) glucose and 0,084% (w/v) potassium iodide, as well as the microbial inoculum with an OD600 of 0.1 was added. In the event the enzyme combination was evaluated in the presence of a potentiator candidate, the latter was added together with the enzymatic substrate in a final concentration ranging from 100 to 0,00125% (v/v). For each combination evaluated, a blank (no addition of microbial inoculum) was included. Positive (inoculum only) and negative (background solution only) were included to evaluate the performance of the test and to select the enzymatic GOX+LPO concentration at which no microbial growth is detected (i.e., absorbance equal to that of the background solution only). Then, the 96-well test plate was incubated for 24 hours at 37° C. (S. aureus, P. aeruginosa and C. albicans) or 25° C. (A. niger). After incubation, the absorbance of each well was measured using a plate spectrophotometer (Spectramax ID3, Molecular Devices). For each combination evaluated, this test was repeated at least 5 times. The collected data were further analyzed in MS Excel. Mean absorbance data were visualized in a table format in which the MIC was highlighted.

[2] = tested on: Pseudomonas aeruginosa ATCC®9027™; test: as above; conditions: P. aeruginosa
Protocol: as §1, §2

[3] = tested on: Staphylococcus aureus ATCC® 6538™; test: as above; conditions: S. aureus
Protocol: as §1, §2

[4] = tested on: S. aureus (ATCC®6538™); test: Microbial challenge testing in alginogel with GOX+LPO; conditions: for reduction in absolute S. aureus counts compared to guaiacol in the same concentration: alginogel with GOX+LPO, enhancer 0.0005%; for antimicrobial activity of enhancing candidate only against S. aureus: alginogel without enzymes, highest concentration tested; for reduction in absolute S. aureus counts compared to reference (enzymes only): alginogel, 0.0075% GOX+LPO
Protocol: To determine the ability of an antimicrobial agent to elicit an antimicrobial preserving efficacy in a gel environment, a microbiological challenge test can be performed. Here, the antimicrobial agent is a combination of the natural enzymes GOX+LPO. […] Microbial challenge testing was performed according to the method described in the European Pharmacopoeia current version chapter 5.1.3 ‘Efficacy of antimicrobial preservation’, but with adapted time points (0, 10, 20, 30, 40, 50, 60, 70 and 80 min instead of 0, 2, 7, 14 and 28 days). In brief, for every enhancing agent to be evaluated, a lab-scale alginogel (based on the Flaminal® formulation, but without the original enhancer guaiacol) including 0.0075% GOX+LPO (1:1) was prepared according to standard practices. Enhancing agents were added to the alginogel in a final concentration ranging from 0.01 to 0,00025% (v/w). As a reference, an alginogel including 0.0075% GOX+LPO (1:1) without the addition of any enhancing agent was included (designated as: enzymes only). As a control, an alginogel without both GOX+LPO (1:1) enzyme solution and enhancing agent (designated as: empty gel) as well as an alginogel only containing the enhancing agent only (designated as: enhancing candidate only) were included. After preparation, a homogenous sample of 10 g was transferred into a 50 ml conical tube for each alginogel to be evaluated and microorganism to be tested. For each test microorganism, including S. aureus (ATCC®6538™), P. aeruginosa (ATCC®9027™), C. albicans (ATCC®10231™) and A. niger (ATCC®16404 ™), a microbial suspension of about 10^8 CFU/ml was prepared in sterile diluent (buffered sodium chloride-peptone solution). Then, the 50 ml conical tubes containing the alginogel samples to be evaluated were inoculated with 100 μl of the designated inoculum. At the start (time point 0) and after 0, 10, 20, 30, 40, 50, 60, 70 and 80 min, the number of viable microorganisms per gram product (expressed as CFU/g) was determined by transferring a sample of 0.5 g of the product into a 15 ml conical tube containing 4.5 ml of sterile diluent and applying general dilution and plate count techniques. For each combination evaluated, this test was repeated at least 1-3 times. The collected data were further analyzed in MS Excel. Mean absolute counts (expressed as log CFU/g) were visualized in a graph.
The purpose of the hereby described experiment was to compare the efficacy of antimicrobial activity enhancement of the GOX+LPO (1:1) enzyme combination by ethanolamine and proline in a microbial challenge test using S. aureus. The test was set up as described in the section on ‘challenge testing’ in Example 2.4. The test was repeated at least 3 times.
The purpose of the hereby described experiment was to compare the efficacy of antimicrobial activity of the GOX+LPO (1:1) enzyme combination in the presence of potassium chloride/potassium bromide and potassium iodide. A microbial challenge test using S. aureus was performed. The test was set up as described in the section on ‘challenge testing’ in Example 2.4.

Compound | MIC: GOX+LPO enzyme solution needed to completely inhibit growth ([1]; enhancer 1%-0.01%) | increase in MIC compared to reference ([1]; enhancer 1%-0.01%) [×] | MIC: GOX+LPO enzyme solution needed to completely inhibit growth ([2]; enhancer 0,1%) | increase in MIC compared to reference ([2]; enhancer 0,1%) [×] | MIC: GOX+LPO enzyme solution needed to completely inhibit growth ([2]; enhancer 1%) | increase in MIC compared to reference ([2]; enhancer 1%) [×] | MIC: GOX+LPO enzyme solution needed to completely inhibit growth ([3]; enhancer 0.01%) | increase in MIC compared to reference or guaiacol solution ([3]; enhancer 0.01%) [×] | reduction in absolute S. aureus counts compared to guaiacol in the same concentration [4] | antimicrobial activity of enhancing candidate only against S. aureus [4] | reduction in absolute S. aureus counts compared to reference (enzymes only) ([4]; enhancer 0.00125-0.0005%) | reduction in absolute S. aureus counts compared to reference (enzymes only) ([4]; enhancer 0.0025%) | also measured
C[C@@H](O)[C@H](N)C(=O)O [Threonine, threonine] | 0.000156 % (v/v) | 2 | 0.000625 % (v/v) | 2 | 0.000156 % (v/v) | 8 | 0.0000391 % (v/v) | 2 | faster complete reduction | no antimicrobial activity | faster complete reduction | immediate entire reduction | MIC: GOX+LPO enzyme solution needed to completely inhibit growth ([3]; enhancer 2%): 0.0000195 % (v/v); increase in MIC compared to reference or guaiacol solution ([3]; enhancer 2%): 4 ×
O=C(O)[C@@H]1CCCN1 [Proline, proline] | 0.000156 % (v/v) | 2 | – | – | – | – | 0.0000195 % (v/v) | 4 | faster complete reduction | no antimicrobial activity | faster complete reduction | immediate entire reduction | MIC: GOX+LPO enzyme solution needed to completely inhibit growth ([2]; enhancer 0.0025-0.00125%): 0.000625 % (v/v); increase in MIC compared to reference or guaiacol solution ([2]; enhancer 0.0025-0.00125%): 2 ×; MIC: GOX+LPO enzyme solution needed to completely inhibit growth ([2]; enhancer 0.01-0.005%): 0.000625 % (v/v); increase in MIC compared to reference or guaiacol solution ([2]; enhancer 0.01-0.005%): 2 ×; MIC: GOX+LPO enzyme solution needed to completely inhibit growth ([3]; enhancer 10%): 0.0000391 % (v/v); increase in MIC compared to reference or guaiacol solution ([3]; enhancer 10%): 2 ×; exposure time to complete reduction of absolute S. aureus counts (average) ([4]; alginogel with GOX+LPO (1:1), enhancer 0,0005% (v/v)): 60 min
NC(=O)C[C@H](N)C(=O)O [Asparagine, asparagine] | – | – | 0.000625 % (v/v) | 2 | 0.000156 % (v/v) | 8 | – | – | – | no antimicrobial activity | – | immediate entire reduction | MIC: GOX+LPO enzyme solution needed to completely inhibit growth ([1]; enhancer 1%-0.05%): 0.000156 % (v/v); increase in MIC compared to reference ([1]; enhancer 1%-0.05%): 2 ×; MIC: GOX+LPO enzyme solution needed to completely inhibit growth ([3]; enhancer 0.5% to 0.01%): 0.0000391 % (v/v); increase in MIC compared to reference or guaiacol solution ([3]; enhancer 0.5% to 0.01%): 2 ×; reduction in absolute S. aureus counts compared to reference (enzymes only) ([4]; enhancer 0,00125%): faster complete reduction
